Test results reported in article PMC8018465, “Antimicrobial activities of a small molecule compound II-6s against oral streptococci” (Journal of Oral Microbiology, 2021).
Values after ≈ are worked out from the molar mass of the structure shown. Read-outs that look alike come from different tables or passages of the source.

Legend:
[1] = parameters: method as in PMID 29355409; conditions: 0.12% CHX daily for a week, repeated every month; in 18 months; cited from earlier work
S. mutans biofilm = assay: Biofilm susceptibility assay (crystal violet); assay type: cell-based, Streptococcus mutans UA159; conditions: 24 h; for MBIC: S. mutans biofilm formation, at least 90% inhibition; for MBRC: S. mutans one-day biofilm, at least 90% reduction
Method: Streptococcus mutans UA159, Streptococcus gordonii DL1 and Streptococcus sanguinis ATCC10556 were obtained from the State Key Laboratory of Oral Diseases (Sichuan University, Chengdu, China). All strains were routinely cultured in brain heart infusion broth (BHI; Difco, Sparks, MD) under anaerobic conditions (5% CO2) at 37°C. For biofilm formation, bacteria were cultured in BHI broth supplied with 1% sucrose (designated BHIS). The effect of II-6s on S. mutans, S. gordonii, and S. sanguinis biofilm was examined by the microdilution method described previously. S. mutans, S. gordonii, and S. sanguinis (1 × 10^7 CFU/ml) respectively, were cultured in BHIS broth and II-6s (0.98 to 500 μg/ml) in 96-well microtiter plates for 24 h. A parallel study was also performed with BHIS as a negative control. After incubation, the culture supernatant and agent were removed, and each well was gently washed three times with phosphate-buffered saline (PBS), then fixed the adherent biofilm was fixed with methanol for 15 min, and stained with 0.1% (wt/vol) crystal violet (Sigma) for 5 min. The excess crystal violet stain in each well was rinsed away with PBS until the blank control wells were colorless. Finally, 200 μl of 95% ethanol was added to each well to dissolve the crystal violet attached to the biofilm. The plate was shaken at room temperature for 30 min, and the absorbance at 595 nm was recorded. To examine the effects of II-6s on mature biofilm, bacterial suspensions were inoculated into a 96-well microtiter plate containing BHIS and incubated at 37°C for 24 h. After biofilm developed, the supernatant from each well was decanted and planktonic cells were removed by washing with sterile PBS. Fresh BHI broth containing II-6s (0.98 to 500 μg/ml) was added to the one-day biofilm, and the plate was further incubated for 24 h. The control wells contained BHIS broth without II-6s. Similarly, the biofilm was fixed, stained, washed, and quantified as described above. […] The experiment was performed in triplicates and repeated at least three times.

S. gordonii = assay: Bacterial susceptibility assay (microdilution, planktonic); assay type: cell-based, Streptococcus gordonii DL1; conditions: Streptococcus gordonii
Method: (§1) Streptococcus mutans UA159, Streptococcus gordonii DL1 and Streptococcus sanguinis ATCC10556 were obtained from the State Key Laboratory of Oral Diseases (Sichuan University, Chengdu, China). All strains were routinely cultured in brain heart infusion broth (BHI; Difco, Sparks, MD) under anaerobic conditions (5% CO2) at 37°C. For biofilm formation, bacteria were cultured in BHI broth supplied with 1% sucrose (designated BHIS).
(§2) The minimum inhibitory concentration (MIC) and minimum bactericidal concentration (MBC) of II-6s against S. mutans, S. gordonii, and S. sanguinis were measured by a microdilution method in BHI as described previously. The bacterial inoculum for the experiment was adjusted to 1 × 10^7 colony-forming units (CFU)/ml for S. mutans, S. gordonii, and S. sanguinis based on the optical density at 600 nm (OD600) versus a CFU/ml graph of each bacterium. Bacterial suspension was added to 96-well microtiter plates which were supplemented with serially diluted concentrations of II-6s ranging from 0.98 to 500 μg/ml. Each plate also included CHX ranging from 0.98 to 500 μg/ml as a positive control, test bacteria and BHI broth as a negative control, BHI broth containing equivalent DMSO (0.5% to 0.001%, ν/ν) as a solvent control and a blank control. […] The lowest concentration of the test solutions that allowed no visible growth on a BHI agar plate was taken as MBC. The experiment was performed in triplicates and repeated at least three times.

S. sanguinis = assay: as above; assay type: cell-based, Streptococcus sanguinis ATCC10556; conditions: Streptococcus sanguinis, BHI medium
Method: as §1, §2

macrophages RAW264.7 = assay: In vitro cytotoxicity assay (CCK-8); assay type: cell-based; conditions: RAW264.7, 24 h exposure
Method: (§3) The cytotoxicity of II-6s was evaluated by the Cell Counting Kit-8 (CCK-8; Dojindo, Kumamoto, Japan) assay as described by Park et al.. Human gingival epithelial cells (HGE), human oral keratinocytes (HOK) and macrophages RAW264.7 (RAW264.7) were provided by the State Key Laboratory of Oral Diseases, Sichuan University, China. HGE, HOK and RAW264.7 were grown in Dulbecco’s modified Eagle’s medium (DMEM; GibcoTM, Invitrogen, Carlsbad, CA, USA) supplemented with 10% fetal bovine serum (FBS; Invitrogen) and 1% penicillin–streptomycin solution (Invitrogen) and cultured at 37°C in a humidified atmosphere containing 5% CO2. All cells were inoculated into 96 well plates at a density of 1 × 10^4 cells per well for 24 h and then treated with II-6s (0.98 to 500 μg/ml) for 5 min or 24 h. The positive control was treated with CHX (0.98 to 500 μg/ml) at the same time. After treatment, the wells were washed with sterile PBS and fresh medium was added. 10 μl of CCK-8 solution (10 μl) was added to each well and incubated for 1.5 h. The absorbance of each well was measured at the wavelength of 450 nm against a blank which contained medium only. Cell viability was calculated according to the following formula: percent viability = (A450 of treated group − A450 of blank control)/(A450 of negative control − A450 of blank control) × 100%. The experiment was conducted in triplicates and repeated three times.

[2] = In vitro cytotoxicity assay (CCK-8); assay type: cell-based; conditions: mouse, RAW264.7 macrophages; RAW264.7, 5 min exposure
Method: as §3

S. mutans [3] = assay: Dose-dependent killing assay; assay type: cell-based, Streptococcus mutans UA159; conditions: equivalent doses, 5-min exposure
Method: (§4) The time- and dose-dependent killing capacities of II-6s were assessed by the method modified from that of Koo et al.. S. mutans was diluted to 1 × 10^7 CFU/ml in BHI broth containing test compounds or not, and incubated in 5% CO2 at 37°C. For the time-kill curve, the final concentration of II-6s and CHX was equivalent to their MBC. At 0, 0.5, 1, 2, 4, 6, 8 and 10 h, samples were serially diluted in PBS and 50 μl aliquots were spread onto BHI agar medium. For the dose-dependent killing curve, S. mutans was treated with different doses of II-6s and CHX for 5 min before diluted and spread. All plates were incubated anaerobically for 48 h followed by enumeration of CFU. The time-kill or dose-dependent killing curves were constructed by plotting the log10(CFU/ml) versus the incubation time or concentration. The experiment was performed in triplicates and repeated at least three times.

S. mutans [4] = assay: Time-kill assay; assay type: cell-based, Streptococcus mutans UA159; conditions: at MBC
Method: as §4

[5] = S. gordonii, planktonic, BHI medium

[H]/N=C(\N/C(=N/[H])NCCCCCCNC(=N)NC(=N)Nc1ccc(Cl)cc1)Nc1ccc(Cl)cc1 [CHX, Chlorhexidine digluconate, reference compound]
patients at high caries risk reduced to moderate or low risk [1]: approximately 70% | MBIC (S. mutans biofilm): 0.98 µg/mL | MBRC (S. mutans biofilm): 62.50 µg/mL | MBC (S. gordonii; [5]): 7.81 mg/L | MIC (S. gordonii; S. gordonii, planktonic, BHI medium, read-out: MIC): 3.91 mg/L | MBC (S. sanguinis): 3.91 mg/L | MIC (S. sanguinis): 0.49 mg/L

CC(C)(Cc1ccc2ccccc2c1)NC[C@H](O)CNc1cc(C(F)(F)F)cc(C(F)(F)F)c1 [II-6s, (S)-1-((3,5-bis(trifluoromethyl)phenyl)amino)-3-((2-methyl-1-(naphthalen-2-yl)propan-2-yl)amino)propan-2-ol]
IC50 (cytotoxicity), compared with CHX (macrophages RAW264.7): higher than that of CHX | IC50 at 5 min [2]: > 125 mg/L | MBIC (S. mutans biofilm): 3.91 µg/mL | MBRC (S. mutans biofilm): 62.50 µg/mL | MIC (S. gordonii): 3.91 mg/L (≈ 8.07 µM) | MBC (S. gordonii; [5]): 15.6 mg/L (≈ 32.3 µM) | bactericidal activity in dose-dependent killing assay (S. mutans [3]): better bactericidal activities than CHX | MBC (S. sanguinis): 7.81 mg/L (≈ 16.1 µM) | MIC (S. sanguinis): 1.95 mg/L (≈ 4.02 µM) | treatment time after which no visible colonies were observed on the plate (S. mutans [4]): 8 h | reduction of S. mutans (S. mutans [4]; within 2 h): approximately 3 log10 CFU/ml
